These results are taken from patent publication US20140288074A1, “FUNGICIDAL PYRAZOLES” (E I DU PONT DE NEMOURS AND COMPANY, priority 2013, published 2014).

What all share (format): in vivo
One assay relates to Botrytis cinerea. Put plainly: Test A: preventive spray on tomato seedlings, tomato Botrytis, visual disease rating. Conditions: 200 ppm test suspension, Botrytis cinerea inoculated the day after spraying; for pest or weed control at 200 ppm: 120 h. Here is the method:
General protocol for preparing test suspensions for Tests A-G: the test compounds were first dissolved in acetone in an amount equal to 3% of the final volume and then suspended at the desired concentration (in ppm) in acetone and purified water (50/50 mix by volume) containing 250 ppm of the surfactant Trem® 014 (polyhydric alcohol esters). The resulting test suspensions were then used in Tests A-G. Each test was conducted in triplicate, and the results were averaged. Spraying a 200 ppm test suspension to the point of run-off on the test plants was the equivalent of a rate of 800 g/ha. Unless otherwise indicated, the rating values indicate a 200 ppm test suspension was used. (An asterisk “*” next to the rating value indicates a 40 ppm test suspension was used.) The test suspension was sprayed to the point of run-off on tomato seedlings. The following day the seedlings were inoculated with a spore suspension of Botrytis cinerea (the causal agent of tomato Botrytis) and incubated in saturated atmosphere at 20° C. for 48 h, and then moved to a growth chamber at 24° C. for 3 additional days, after which time visual disease ratings were made. Results for Tests A-G are given in Table A. In the Table, a rating of 100 indicates 100% disease control and a rating of 0 indicates no disease control (relative to the controls). A hyphen (-) indicates no test results.

Another assay has as its system Septoria nodorum. Put plainly: Test C: preventive spray on wheat seedlings, Septoria glume blotch, visual disease rating. The conditions noted are these: 200 ppm test suspension, Septoria nodorum inoculated the day after spraying; for pest or weed control at 200 ppm: Parastagonospora nodorum, 264 h. Here is the method: General protocol for preparing test suspensions for Tests A-G: the test compounds were first dissolved in acetone in an amount equal to 3% of the final volume and then suspended at the desired concentration (in ppm) in acetone and purified water (50/50 mix by volume) containing 250 ppm of the surfactant Trem® 014 (polyhydric alcohol esters). The resulting test suspensions were then used in Tests A-G. Each test was conducted in triplicate, and the results were averaged. Spraying a 200 ppm test suspension to the point of run-off on the test plants was the equivalent of a rate of 800 g/ha. Unless otherwise indicated, the rating values indicate a 200 ppm test suspension was used. (An asterisk “*” next to the rating value indicates a 40 ppm test suspension was used.) The test suspension was sprayed to the point of run-off on wheat seedlings. The following day the seedlings were inoculated with a spore suspension of Septoria nodorum (the causal agent of Septoria glume blotch) and incubated in a saturated atmosphere at 24° C. for 48 h, and then moved to a growth chamber at 20° C. for 9 days, after which time visual disease ratings were made. Results for Tests A-G are given in Table A. In the Table, a rating of 100 indicates 100% disease control and a rating of 0 indicates no disease control (relative to the controls). A hyphen (-) indicates no test results.

A further assay concerns Septoria tritici. Put plainly: Test D: preventive spray on wheat seedlings, wheat leaf blotch, visual disease rating. The conditions noted are these: 200 ppm test suspension, Septoria tritici inoculated the day after spraying; for pest or weed control at 200 ppm: Zymoseptoria tritici, 504 h. The procedure: General protocol for preparing test suspensions for Tests A-G: the test compounds were first dissolved in acetone in an amount equal to 3% of the final volume and then suspended at the desired concentration (in ppm) in acetone and purified water (50/50 mix by volume) containing 250 ppm of the surfactant Trem® 014 (polyhydric alcohol esters). The resulting test suspensions were then used in Tests A-G. Each test was conducted in triplicate, and the results were averaged. Spraying a 200 ppm test suspension to the point of run-off on the test plants was the equivalent of a rate of 800 g/ha. Unless otherwise indicated, the rating values indicate a 200 ppm test suspension was used. (An asterisk “*” next to the rating value indicates a 40 ppm test suspension was used.) The test suspension was sprayed to the point of run-off on wheat seedlings. The following day the seedlings were inoculated with a spore suspension of Septoria tritici (the causal agent of wheat leaf blotch) and incubated in saturated atmosphere at 24° C. for 48 h. and then the seedlings were moved to a growth chamber at 20° C. for 19 additional days, after which time visual disease ratings were made. Results for Tests A-G are given in Table A. In the Table, a rating of 100 indicates 100% disease control and a rating of 0 indicates no disease control (relative to the controls). A hyphen (-) indicates no test results.

Assay [1] relates to Puccinia recondita f. sp. tritici. The experiment in a line: Test F: preventive spray on wheat seedlings, wheat leaf rust, visual disease rating. Conditions: 200 ppm test suspension, Puccinia recondita f. sp. tritici inoculated the day after spraying; for pest or weed control at 200 ppm: 168 h. Here is the method:
General protocol for preparing test suspensions for Tests A-G: the test compounds were first dissolved in acetone in an amount equal to 3% of the final volume and then suspended at the desired concentration (in ppm) in acetone and purified water (50/50 mix by volume) containing 250 ppm of the surfactant Trem® 014 (polyhydric alcohol esters). The resulting test suspensions were then used in Tests A-G. Each test was conducted in triplicate, and the results were averaged. Spraying a 200 ppm test suspension to the point of run-off on the test plants was the equivalent of a rate of 800 g/ha. Unless otherwise indicated, the rating values indicate a 200 ppm test suspension was used. (An asterisk “*” next to the rating value indicates a 40 ppm test suspension was used.) The test suspension was sprayed to the point of run-off on wheat seedlings. The following day the seedlings were inoculated with a spore suspension of Puccinia recondita f. sp. tritici (the causal agent of wheat leaf rust) and incubated in a saturated atmosphere at 20° C. for 24 h, and then moved to a growth chamber at 20° C. for 6 days, after which time visual disease ratings were made. Results for Tests A-G are given in Table A. In the Table, a rating of 100 indicates 100% disease control and a rating of 0 indicates no disease control (relative to the controls). A hyphen (-) indicates no test results.

Assay [2] relates to Blumeria graminis f. sp. tritici. Put plainly: Test G: preventive spray on wheat seedlings, wheat powdery mildew, visual disease rating.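 As to all read-outs here: rated 8 days after spore dust inoculation at 20 °C.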 The conditions noted are these: 200 ppm test suspension, Blumeria graminis f. sp. tritici inoculated the day after spraying; for pest or weed control at 200 ppm: 192 h. The procedure:
General protocol for preparing test suspensions for Tests A-G: the test compounds were first dissolved in acetone in an amount equal to 3% of the final volume and then suspended at the desired concentration (in ppm) in acetone and purified water (50/50 mix by volume) containing 250 ppm of the surfactant Trem® 014 (polyhydric alcohol esters). The resulting test suspensions were then used in Tests A-G. Each test was conducted in triplicate, and the results were averaged. Spraying a 200 ppm test suspension to the point of run-off on the test plants was the equivalent of a rate of 800 g/ha. Unless otherwise indicated, the rating values indicate a 200 ppm test suspension was used. (An asterisk “*” next to the rating value indicates a 40 ppm test suspension was used.) The test suspension was sprayed to the point of run-off on wheat seedlings. The following day the seedlings were inoculated with a spore dust of Blumeria graminis f. sp. tritici (also known as Erysiphe graminis f. sp. tritici, the causal agent of wheat powdery mildew) and incubated in a growth chamber at 20° C. for 8 days, after which time visual disease ratings were made. Results for Tests A-G are given in Table A. In the Table, a rating of 100 indicates 100% disease control and a rating of 0 indicates no disease control (relative to the controls). A hyphen (-) indicates no test results.

As for “4-(2-chloro-6-fluorophenyl)-N,1,3-trimethyl-α-(1-methylpropyl)-1H-pyrazole-5-methanamine [Compound 34]”, the “Test A rating (disease control)” value with Botrytis cinerea was found to be 0%. Also, the “Test C rating (disease control)” value in the assay on Septoria nodorum came out at 99%. Further, the “Test D rating (disease control)” value in the assay with Septoria tritici is given as 12%. Also, the “Test F rating (disease control)” value in assay [1] is given as 90%. Further, the “Test G rating (disease control)” value in assay [2] is given as 0%.
Usually pest or weed control stands for how far the test organism was held down. Turning to `Cc1nn(C)c(OCC(C)C)c1-c1c(F)cc(F)cc1F` [Compound 22, 1,3-dimethyl-5-(2-methylpropoxy)-4-(2,4,6-trifluorophenyl)-1H-pyrazole], the pest or weed control at 200 ppm in the assay on Botrytis cinerea amounted to 0%; in the assay with Septoria nodorum, 0%; in the assay with Septoria tritici, 0%; in assay [1], 17%; in assay [2] it was 0%.
As for `CCC(C)COc1c(-c2ccc(F)cc2Br)c(C)nn1C` (centres unmarked) [Compound 23, 4-(2-bromo-4-fluorophenyl)-1,3-dimethyl-5-(2-methylbutoxy)-1H-pyrazole], the pest or weed control at 200 ppm with Botrytis cinerea is 70%; in the assay with Septoria nodorum, 0%; in the assay on Septoria tritici, 95%; in assay [1], 9%; in assay [2], 0%.
In the case of `Cc1nn(C)c(C(O)C(C)C)c1-c1c(F)cccc1Cl` (stereo not drawn) [Compound 24, 4-(2-chloro-6-fluorophenyl)-1,3-dimethyl-α-(1-methylethyl)-1H-pyrazole-5-methanol], the pest or weed control at 200 ppm in the assay on Botrytis cinerea was 99%; in the assay with Septoria nodorum, 98%; in the assay with Septoria tritici, 91%; in assay [1] it was 99%; in assay [2], 97%.
With `CNC(c1c(-c2c(F)cccc2Cl)c(C)nn1C)C(C)C` (stereo not drawn) [Compound 25, 4-(2-chloro-6-fluorophenyl)-N,1,3-trimethyl-α-(1-methylethyl)-1H-pyrazole-5-methanamine], the pest or weed control at 200 ppm with Botrytis cinerea was found to be 0%; in the assay on Septoria nodorum, 100%; with Septoria tritici, 25%; in assay [1] it was 99%; in assay [2], 99%.
As to `CSC(c1c(-c2c(F)cccc2Cl)c(C)nn1C)C(C)C` (centres unmarked) [Compound 26, 4-(2-chloro-6-fluorophenyl)-1,3-dimethyl-5-[2-methyl-1-(methylthio)propyl]-1H-pyrazole], the pest or weed control at 200 ppm with Botrytis cinerea was 0%; in the assay with Septoria nodorum it was 99%; in the assay on Septoria tritici, 3%; in assay [1], 98%; in assay [2], 0%.
In the case of `Cc1nn(C)c(OCC2CC2)c1-c1ccc(F)cc1Cl` [Compound 27, 4-(2-chloro-4-fluorophenyl)-5-(cyclopropylmethoxy)-1,3-dimethyl-1H-pyrazole], the pest or weed control at 200 ppm in the assay with Botrytis cinerea stood at 99%; in the assay on Septoria nodorum, 69%; in the assay with Septoria tritici, 100%; in assay [1] it was 9%; in assay [2], 0%.
In the same order, the values of `Cc1nn(C)c(OC2CCCCC2)c1-c1ccc(F)cc1Cl` [Compound 28, 4-(2-chloro-4-fluorophenyl)-5-(cyclohexyloxy)-1,3-dimethyl-1H-pyrazole] are 95%, 0%, 100%, 58% and 73%.
With `Cc1nn(C)c(OCC(C)C)c1-c1ccc(F)cc1Cl` [Compound 29], in the assay with Botrytis cinerea, the “Test A rating (disease control)” value came to 0%. For the same compound, in the assay with Septoria nodorum, the “Test C rating (disease control)” value is listed as 100%. In the assay with Septoria tritici, the “Test D rating (disease control)” value is recorded as 63%. Moreover, in assay [1], the “Test F rating (disease control)” value is reported as 99%. Besides, the “Test G rating (disease control)” value in assay [2] is given as 0%.
Take `COCCOc1c(-c2ccc(F)cc2Cl)c(C)nn1C` [Compound 30, 4-(2-chloro-4-fluorophenyl)-5-(2-methoxyethoxy)-1,3-dimethyl-1H-pyrazole]: the pest or weed control at 200 ppm worked out at 91% with Botrytis cinerea; 0% in the assay with Septoria nodorum; 85% in the assay with Septoria tritici; 58% in assay [1]; 0% in assay [2].
On to `CCC(C)C(SC)c1c(-c2c(F)cccc2Cl)c(C)nn1C` (centres unmarked) [Compound 35, 4-(2-chloro-6-fluorophenyl)-1,3-dimethyl-5-[2-methyl-1-(methylthio)butyl]-1H-pyrazole], for which the pest or weed control at 200 ppm stood at 0% in the assay with Botrytis cinerea, 0% in the assay on Septoria nodorum, 0% in assay [1] and 69% in assay [2].
For the compound `COCCN(CCOC)c1c(-c2c(F)cc(F)cc2F)c(C)nn1C` [Compound 51], the “Test A rating (disease control)” value with Botrytis cinerea was found to be 82%. For the same compound, in the assay with Septoria nodorum, the “Test C rating (disease control)” value stood at 100%. The “Test F rating (disease control)” value in assay [1] stood at 99%. The “Test G rating (disease control)” value in assay [2] amounted to 55%.
As to `Cc1nn(C)c(NCC(C)C)c1-c1c(F)cc(F)cc1F` [Compound 53], in the assay with Botrytis cinerea, the “Test A rating (disease control)” value came out at 95%. Further, the “Test C rating (disease control)” value with Septoria nodorum was determined as 100%. Further, the “Test F rating (disease control)” value in assay [1] came out at 100%. Further, the “Test G rating (disease control)” value in assay [2] is on record as 81%.
